Cristallinity degree data for one compound are collected here from US20070197586A1, “8-Hydroxy-5-[(-Hydroxy-2-[[ (1R)-2-(4-Methoxyphenyl)-1-Methylethyl] Amino][Ethyl]-2(1H)-Quinolinone Monohydrochloride In Crystalline Form And The Process For Its Preparation” (Chiesi Farmaceutici S.p.A., priority 2004, published 2007).

The nature of this data set: Crystalline degree by in-house DSC method (heat of fusion vs 100% crystalline reference standard). The class given is physicochemical. Particulars: samples as such and after grinding or micronization; DSC scan rate 130° C./min; maintained after grinding and micronization. The procedure: The crystalline degree of the compound has been determined according to a differential scanning calorimetry (DSC) method developed in-house based on the measurement of the heat of fusion.
Said method uses a scan rate of 130° C./min to evaluate the percentage of crystalline compound in a sample by determining the ratio between the ΔH (heat of fusion) of the sample with respect to the ΔH of a 100% crystalline reference standard, determined in the same range of temperature and in the same experimental conditions. The 100% crystalline reference standard was prepared by suspending the compound in ethanol, then filtering to eliminate the residual amorphous compound dissolved in ethanol, and drying.
The method was applied to samples of the compound of the Example as such, and after grinding or micronization.

With `COc1ccc(C[C@@H](C)NC[C@H](O)c2ccc(O)c3[nH]c(=O)ccc23)cc1.Cl` [compound of the Example, 8-hydroxy-5-[(1R)-1-hydroxy-2-[[(1R)-2-(4-methoxyphenyl)-1-methylethyl]amino]ethyl]-2(1H)-quinolinone monohydrochloride], the cristallinity degree entry was “higher than 90%”.
